Measured values published in patent US9505728B2, “Triazolone compounds and uses thereof” (INCEPTION 2, INC., priority 2012, dated 2016).

target: T1, Human PPARα (Homo sapiens, UniProt Q07869); assay: Human PPARα Reporter Assay (luciferase); assay type: cell-based; details: human PPARα reporter cells, overnight incubation, antagonism; read-out: Luciferase IC50
T1 construct: host or cells: proprietary non-human mammalian cells
T1 sequence (Q07869 1-468): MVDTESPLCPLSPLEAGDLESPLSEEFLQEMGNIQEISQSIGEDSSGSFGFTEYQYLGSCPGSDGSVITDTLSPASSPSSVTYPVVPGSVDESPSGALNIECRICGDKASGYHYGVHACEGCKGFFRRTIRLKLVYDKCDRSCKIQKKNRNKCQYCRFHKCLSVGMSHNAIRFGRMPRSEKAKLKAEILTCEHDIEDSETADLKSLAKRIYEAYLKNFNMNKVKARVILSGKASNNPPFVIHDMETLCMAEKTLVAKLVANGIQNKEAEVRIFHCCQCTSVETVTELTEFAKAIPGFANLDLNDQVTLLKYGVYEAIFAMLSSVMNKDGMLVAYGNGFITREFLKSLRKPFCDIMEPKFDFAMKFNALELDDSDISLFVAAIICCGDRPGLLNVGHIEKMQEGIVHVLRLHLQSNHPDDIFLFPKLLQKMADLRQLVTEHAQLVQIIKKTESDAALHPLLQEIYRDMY
Method: Human PPARα Reporter Assay
The screening of test compounds for agonist or antagonist activities against human PPARα receptors was performed using a commercial kit, Human PPARα Reporter Assay System (Indigo Biosciences, Cat. #IB00111).
This nuclear receptor assay system utilizes proprietary non-human mammalian cells engineered to provide constitutive, high-level expression of Human PPARα. Because these cells incorporate a PPARα-responsive luciferase reporter gene, quantifying expressed luciferase activity provides a sensitive surrogate measure of PPARα activity in the treated cells. The primary application of this reporter assay system is in the screening of test samples to quantify any functional activity, either agonist or antagonist, that they may exert against human PPARα.
Briefly, reporter cells are dispensed into wells of the assay plate and then immediately dosed with test compounds. Following an overnight incubation, the treatment media is discarded and Luciferase Detection Reagent (LDR) is added. The intensity of light emission from the ensuing luciferase reaction provides a sensitive measure that is directly proportional to the relative level of PPARα activation in the reporter cells.

SMILES	IC50
CCn1c(CCCc2ccc(-c3cccc(CC(=O)O)c3)cc2)nn(Cc2ccc(C(C)(C)C)s2)c1=O [Example 54, 2-(4′-(3-(1-((5-(tert-Butyl)thiophen-2-yl)methyl)-4-ethyl-5-oxo-4,5-dihydro-1H-1,2,4-triazol-3-yl)propyl)-[1,1′-biphenyl]-3-yl)acetic acid]	0.499 µM
COc1ccc(-c2ccc(CCCc3nn(Cc4ccc(C(C)(C)C)cc4)c(=O)n3CC(F)(F)F)cc2)cc1CC(=O)O [Example 55, 2-(4′-(3-(1-(4-(tert-Butyl)benzyl)-5-oxo-4-(2,2,2-trifluoroethyl)-4,5-dihydro-1H-1,2,4-triazol-3-yl)propyl)-4-methoxy-[1,1′-biphenyl]-3-yl)acetic acid]	0.25 µM
CCn1c(CCCc2ccc(-c3cccc(C(O)C(=O)NC4CC4)c3)cc2)nn(Cc2ccc(C(C)(C)C)cc2)c1=O (stereo not shown) [Example 56, 2-(4′-(3-(1-(4-(tert-Butyl)benzyl)-4-ethyl-5-oxo-4,5-dihydro-1H-1,2,4-triazol-3-yl)propyl)-[1,1′-biphenyl]-3-yl)-N-cyclopropyl-2-hydroxyacetamide]	0.33 µM
CCn1c(CCCc2ccc(-c3cccc(C(=O)C(=O)NC4CC4)c3)cc2)nn(Cc2ccc(C(C)(C)C)cc2)c1=O [Example 57, 2-(4′-(3-(1-(4-(tert-Butyl)benzyl)-4-ethyl-5-oxo-4,5-dihydro-1H-1,2,4-triazol-3-yl)propyl)-[1,1′-biphenyl]-3-yl)-N-cyclopropyl-2-oxoacetamide]	0.175 µM
CCn1c(CCCc2ccc(-c3ccc(OC)c(N)n3)cc2)nn(Cc2ccc(C(C)(C)C)cc2)c1=O [Example 58, 3-{3-[4-(6-Amino-5-methoxy(2-pyridyl))phenyl]propyl}-1-{[4-(tert-butyl)phenyl]methyl}-4-ethyl-1,2,4-triazolin-5-one]	0.071 µM
CCn1c(CCCc2ccc(-c3ccc(OC)c(NS(=O)(=O)c4ccccc4)n3)cc2)nn(Cc2ccc(C(C)(C)C)cc2)c1=O [Example 59, 1-{[4-(tert-Butyl)phenyl]methyl}-4-ethyl-3-[3-(4-{5-methoxy-6-[(phenylsulfonyl)amino](2-pyridyl)}phenyl)propyl]-1,2,4-triazolin-5-one]	0.003 µM
CCOc1ccc(-c2ccc(CCCc3nn(Cc4ccc(C(C)(C)C)cc4)c(=O)n3CC)cc2)nc1N [Example 60, 3-{3-[4-(6-Amino-5-ethoxy(2-pyridyl))phenyl]propyl}-1-{[4-(tert-butyl)phenyl]methyl}-4-ethyl-1,2,4-triazolin-5-one]	0.063 µM
CCSc1ccc(-c2ccc(CCCc3nn(Cc4ccc(C(C)(C)C)cc4)c(=O)n3CC)cc2)cc1CC(=O)O [Example 61, 2-(5-{4-[3-(1-{[4-(tert-Butyl)phenyl]methyl}-4-ethyl-5-oxo(1,2,4-triazolin-3-yl))propyl]phenyl}-2-ethylthiophenyl)acetic acid]	0.02 µM
CCOc1ccc(-c2ccc(CCCc3nn(Cc4ccc(C(C)(C)C)cc4)c(=O)n3CC)cc2)nc1NS(=O)(=O)c1ccccc1 [Example 62, 1-{[4-(tert-Butyl)phenyl]methyl}-3-[3-(4-{5-ethoxy-6-[(phenylsulfonyl)amino](2-pyridyl)}phenyl)propyl]-4-ethyl-1,2,4-triazolin-5-one]	0.005 µM
CCn1c(CCCc2ccc(-c3ccc(OC)c(CC(=O)O)c3)cc2)nn(Cc2ccc(C3(F)COC3)cc2)c1=O [Example 63]	0.562 µM
CCn1c(CCCc2ccc(-c3ccc(SC)c(CC(=O)O)c3)cc2)nn(Cc2ccc(C(C)(C)C)cc2)c1=O [Example 64, 2-(5-{4-[3-(1-{[4-(tert-Butyl)phenyl]methyl}-4-ethyl-5-oxo(1,2,4-triazolin-3-yl))propyl]phenyl}-2-methylthiophenyl)acetic acid]	0.038 µM
CCn1c(CCCc2ccc(-c3ccc(OC)c(C(=O)O)c3)cc2)nn(Cc2ccc(C(C)(C)C)cc2)c1=O [Example 65, 4′-(3-(1-(4-(tert-Butyl)benzyl)-4-ethyl-5-oxo-4,5-dihydro-1H-1,2,4-triazol-3-yl)propyl)-4-methoxy-[1,1′-biphenyl]-3-carboxylic acid]	0.006 µM
CCOc1ccc(-c2ccc(CCCc3nn(Cc4ccc(C(C)(C)C)cc4)c(=O)n3CC)cc2)cc1C(=O)O [Example 66, 4′-(3-(1-(4-(tert-Butyl)benzyl)-4-ethyl-5-oxo-4,5-dihydro-1H-1,2,4-triazol-3-yl)propyl)-4-ethoxy-[1,1′-biphenyl]-3-carboxylic acid]	0.003 µM
CCn1c(CCCc2ccc(-c3cccc(CC(=O)O)c3)cc2)nn(Cc2ccc(C(C)(C)C)c(Br)c2)c1=O [Example 67, 2-(4′-(3-(1-(3-Bromo-4-(tert-butyl)benzyl)-4-ethyl-5-oxo-4,5-dihydro-1H-1,2,4-triazol-3-yl)propyl)-[1,1′-biphenyl]-3-yl)acetic acid]	0.088 µM
CCCn1c(CCCc2ccc(-c3ccc(OCC)c(CC(=O)O)c3)cc2)nn(Cc2ccc(C(C)(C)C)cc2)c1=O [Example 68, 2-(4′-(3-(1-(4-(tert-Butyl)benzyl)-5-oxo-4-propyl-4,5-dihydro-1H-1,2,4-triazol-3-yl)propyl)-4-ethoxy-[1,1′-biphenyl]-3-yl)acetic acid]	0.032 µM
CCCCn1c(CCCc2ccc(-c3ccc(OCC)c(CC(=O)O)c3)cc2)nn(Cc2ccc(C(C)(C)C)cc2)c1=O [Example 69, 2-(4′-(3-(4-Butyl-1-(4-(tert-butyl)benzyl)-5-oxo-4,5-dihydro-1H-1,2,4-triazol-3-yl)propyl)-4-ethoxy-[1,1′-biphenyl]-3-yl)acetic acid]	0.024 µM
CCn1c(CCCc2ccc(-c3ccc4[nH]cc(C(=O)O)c4c3)cc2)nn(Cc2ccc(C(C)(C)C)cc2)c1=O [Example 70, 5-(4-(3-(1-(4-(tert-Butyl)benzyl)-4-ethyl-5-oxo-4,5-dihydro-1H-1,2,4-triazol-3-yl)propyl)phenyl)-1H-indole-3-carboxylic acid]	0.27 µM
CCCc1ccc(S(=O)(=O)Nc2ccc(-c3ccc(CCCc4nn(Cc5ccc(C(C)(C)C)cc5)c(=O)n4CC)cc3)nc2)cc1 [Example 71, 1-{[4-(tert-Butyl)phenyl]methyl}-4-ethyl-3-{3-[4-(5-{[(4-propylphenyl)sulfonyl]amino}(2-pyridyl))phenyl]propyl}-1,2,4-triazolin-5-one]	0.865 µM
CCCc1ccc(S(=O)(=O)Nc2cccc(-c3ccc(CCCc4nn(Cc5ccc(C(C)(C)C)cc5)c(=O)n4CC)cc3)n2)cc1 [Example 72, 1-{[4-(tert-Butyl)phenyl]methyl}-4-ethyl-3-{3-[4-(6-{[(4-propylphenyl)sulfonyl]amino}(2-pyridyl))phenyl]propyl}-1,2,4-triazolin-5-one]	0.208 µM
CCn1c(CCCc2ccc(-c3cccc(NS(=O)(=O)c4ccc(-c5ccc(C)cc5)cc4)n3)cc2)nn(Cc2ccc(C(C)(C)C)cc2)c1=O [Example 73, 1-{[4-(tert-Butyl)phenyl]methyl}-4-ethyl-3-(3-{4-[6-({[4-(4-methylphenyl)phenyl]sulfonyl}amino)(2-pyridyl)]phenyl}propyl)-1,2,4-triazolin-5-one]	0.062 µM
CCn1c(CCCc2ccc(-c3cccc(NS(=O)(=O)c4ccc(-c5ccc(OC)cc5)cc4)n3)cc2)nn(Cc2ccc(C(C)(C)C)cc2)c1=O [Example 74, 1-{[4-(tert-Butyl)phenyl]methyl}-4-ethyl-3-(3-{4-[6-({[4-(4-methoxyphenyl)phenyl]sulfonyl}amino)(2-pyridyl)]phenyl}propyl)-1,2,4-triazolin-5-one]	0.945 µM
CCn1c(CCCc2ccc(-c3ccc(NS(=O)(=O)c4ccc5c(c4)CCN5C(C)=O)cn3)cc2)nn(Cc2ccc(C(C)(C)C)cc2)c1=O [Example 75, 1-Acetyl-5-{[(6-{4-[3-(1-{[4-(tert-butyl)phenyl]methyl}-4-ethyl-5-oxo(1,2,4-triazolin-3-yl))propyl]phenyl}(3-pyridyl))amino]sulfonyl}indoline]	0.207 µM
C=CCn1c(CCCc2ccc(-c3ccc(OC)c(CC(=O)O)c3)cc2)nn(Cc2ccc(C(C)(C)C)cc2)c1=O [Example 76, 2-(4′-(3-(4-Allyl-1-(4-(tert-butyl)benzyl)-5-oxo-4,5-dihydro-1H-1,2,4-triazol-3-yl)propyl)-4-methoxy-[1,1′-biphenyl]-3-yl)acetic acid]	0.261 µM
CCn1c(CCCc2ccc(-c3ccc(NS(=O)(=O)c4ccc(Oc5ccc(C(F)(F)F)cn5)cc4)cn3)cc2)nn(Cc2ccc(C(C)(C)C)cc2)c1=O [Example 77, 1-{[4-(tert-Butyl)phenyl]methyl}-4-ethyl-3-[3-(4-{5-[({4-[5-(trifluoromethyl)(2-pyridyloxy)]phenyl}sulfonyl)amino](2-pyridyl)}phenyl)propyl]-1,2,4-triazolin-5-one]	0.703 µM
CCn1c(CCCc2ccc(-c3cccc(NS(=O)(=O)Cc4ccccc4)n3)cc2)nn(Cc2ccc(C(C)(C)C)cc2)c1=O [Example 78, 1-{[4-(tert-Butyl)phenyl]methyl}-4-ethyl-3-{3-[4-(6-{[benzylsulfonyl]amino}(2-pyridyl))phenyl]propyl}-1,2,4-triazolin-5-one]	0.037 µM
